Results published in ChEMBL document CHEMBL5653615 (J Biol Chem, 2013).

How the values were obtained:
[1] = target: T1, NUAK family SNF1-like kinase 1 (Homo sapiens) (UniProt O60285); test: Inhibition of human ARK5 at 18.6 nM by HotSpot assay relative to control
T1 sequence (whole entry): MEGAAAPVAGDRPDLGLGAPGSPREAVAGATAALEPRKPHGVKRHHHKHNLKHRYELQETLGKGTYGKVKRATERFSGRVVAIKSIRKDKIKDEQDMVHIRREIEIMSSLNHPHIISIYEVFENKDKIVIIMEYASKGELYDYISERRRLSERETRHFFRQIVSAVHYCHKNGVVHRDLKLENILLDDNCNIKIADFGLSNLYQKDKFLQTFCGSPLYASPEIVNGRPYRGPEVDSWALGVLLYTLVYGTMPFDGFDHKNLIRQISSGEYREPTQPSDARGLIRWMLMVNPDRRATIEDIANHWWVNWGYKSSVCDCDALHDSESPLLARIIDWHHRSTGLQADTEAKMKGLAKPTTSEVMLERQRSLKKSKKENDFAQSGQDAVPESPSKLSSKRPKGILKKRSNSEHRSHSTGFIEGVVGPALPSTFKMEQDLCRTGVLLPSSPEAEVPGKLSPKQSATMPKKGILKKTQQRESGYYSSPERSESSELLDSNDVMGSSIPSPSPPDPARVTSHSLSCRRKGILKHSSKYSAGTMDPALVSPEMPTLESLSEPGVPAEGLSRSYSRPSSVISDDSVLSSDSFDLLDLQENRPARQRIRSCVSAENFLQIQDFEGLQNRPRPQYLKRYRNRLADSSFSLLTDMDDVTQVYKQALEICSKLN

[2] = target: Mast/stem cell growth factor receptor Kit (Homo sapiens) (UniProt P10721); test: Inhibition of human c-Kit at 18.6 nM by HotSpot assay relative to control
Sequence of Mast/stem cell growth factor receptor Kit (Homo sapiens) (P10721 whole entry): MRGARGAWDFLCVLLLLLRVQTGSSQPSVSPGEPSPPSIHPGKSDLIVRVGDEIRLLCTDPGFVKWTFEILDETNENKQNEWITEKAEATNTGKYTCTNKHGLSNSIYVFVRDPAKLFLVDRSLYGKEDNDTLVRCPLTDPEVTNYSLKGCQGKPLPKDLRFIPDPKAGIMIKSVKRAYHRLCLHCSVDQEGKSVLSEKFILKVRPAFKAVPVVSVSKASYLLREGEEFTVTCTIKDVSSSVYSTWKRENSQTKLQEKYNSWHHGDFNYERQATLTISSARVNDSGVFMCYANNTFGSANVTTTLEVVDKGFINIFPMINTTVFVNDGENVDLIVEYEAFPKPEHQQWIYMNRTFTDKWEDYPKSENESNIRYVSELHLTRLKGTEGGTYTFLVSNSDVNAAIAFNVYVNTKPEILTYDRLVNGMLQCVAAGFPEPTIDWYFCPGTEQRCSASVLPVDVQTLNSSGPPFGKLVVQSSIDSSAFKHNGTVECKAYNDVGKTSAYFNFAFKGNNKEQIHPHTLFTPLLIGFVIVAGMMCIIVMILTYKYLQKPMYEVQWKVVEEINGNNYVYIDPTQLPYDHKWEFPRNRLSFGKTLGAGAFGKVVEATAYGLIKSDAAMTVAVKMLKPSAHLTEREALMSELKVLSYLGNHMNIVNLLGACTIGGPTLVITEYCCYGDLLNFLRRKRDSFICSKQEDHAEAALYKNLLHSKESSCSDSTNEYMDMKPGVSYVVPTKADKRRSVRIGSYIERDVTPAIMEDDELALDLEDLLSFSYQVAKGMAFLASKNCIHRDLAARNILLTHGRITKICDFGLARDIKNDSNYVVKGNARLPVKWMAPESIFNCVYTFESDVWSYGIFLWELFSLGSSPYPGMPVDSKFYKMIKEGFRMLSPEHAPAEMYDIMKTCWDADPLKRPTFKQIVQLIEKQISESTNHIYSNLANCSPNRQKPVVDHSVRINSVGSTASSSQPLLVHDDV

[3] = target: Dual specificity tyrosine-phosphorylation-regulated kinase 1B (Homo sapiens) (UniProt Q9Y463); test: Inhibition of human DYRK1B at 18.6 nM by HotSpot assay relative to control
Sequence of Dual specificity tyrosine-phosphorylation-regulated kinase 1B (Homo sapiens) (Q9Y463 whole entry, looked up): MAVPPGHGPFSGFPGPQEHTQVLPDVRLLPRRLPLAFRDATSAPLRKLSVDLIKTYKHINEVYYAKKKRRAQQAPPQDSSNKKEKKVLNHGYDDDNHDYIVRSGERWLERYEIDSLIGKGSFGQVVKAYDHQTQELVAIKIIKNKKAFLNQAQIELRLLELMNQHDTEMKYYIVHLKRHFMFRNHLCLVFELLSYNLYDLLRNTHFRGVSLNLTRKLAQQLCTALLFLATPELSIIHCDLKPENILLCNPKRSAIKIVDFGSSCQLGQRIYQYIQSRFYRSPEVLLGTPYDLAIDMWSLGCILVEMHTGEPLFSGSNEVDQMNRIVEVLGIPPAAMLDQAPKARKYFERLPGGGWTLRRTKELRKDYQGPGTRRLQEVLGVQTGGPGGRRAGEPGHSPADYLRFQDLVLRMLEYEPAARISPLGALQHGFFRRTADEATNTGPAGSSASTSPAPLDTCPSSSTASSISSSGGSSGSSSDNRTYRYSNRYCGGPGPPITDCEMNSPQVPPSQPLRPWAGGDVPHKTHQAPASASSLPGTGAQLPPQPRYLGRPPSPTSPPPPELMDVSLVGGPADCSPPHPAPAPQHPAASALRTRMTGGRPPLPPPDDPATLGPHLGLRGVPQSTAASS

[4] = target: T2, Protein kinase C zeta type (Homo sapiens) (UniProt Q05513); test: Inhibition of human PKCzeta at 18.6 nM by HotSpot assay relative to control
T2 sequence (whole entry): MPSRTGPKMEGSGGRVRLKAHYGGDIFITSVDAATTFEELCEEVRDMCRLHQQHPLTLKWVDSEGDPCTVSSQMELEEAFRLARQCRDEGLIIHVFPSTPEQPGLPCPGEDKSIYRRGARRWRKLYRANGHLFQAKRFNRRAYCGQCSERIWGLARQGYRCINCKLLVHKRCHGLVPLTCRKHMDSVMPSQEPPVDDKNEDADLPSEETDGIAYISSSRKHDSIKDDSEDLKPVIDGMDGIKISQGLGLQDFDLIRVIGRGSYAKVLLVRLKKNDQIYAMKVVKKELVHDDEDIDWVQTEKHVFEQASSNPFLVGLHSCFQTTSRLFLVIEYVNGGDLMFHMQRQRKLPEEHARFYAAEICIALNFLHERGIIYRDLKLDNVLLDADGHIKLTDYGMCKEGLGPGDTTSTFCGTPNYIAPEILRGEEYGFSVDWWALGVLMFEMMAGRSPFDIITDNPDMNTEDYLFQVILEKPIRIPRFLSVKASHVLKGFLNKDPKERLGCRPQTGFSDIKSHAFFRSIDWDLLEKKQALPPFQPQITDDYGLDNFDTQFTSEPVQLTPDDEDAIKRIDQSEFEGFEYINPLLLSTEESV

[5] = target: T3, NUAK family SNF1-like kinase 2 (Homo sapiens) (UniProt Q9H093); test: Inhibition of human NUAK2 at 18.6 nM by HotSpot assay relative to control
T3 sequence (whole entry): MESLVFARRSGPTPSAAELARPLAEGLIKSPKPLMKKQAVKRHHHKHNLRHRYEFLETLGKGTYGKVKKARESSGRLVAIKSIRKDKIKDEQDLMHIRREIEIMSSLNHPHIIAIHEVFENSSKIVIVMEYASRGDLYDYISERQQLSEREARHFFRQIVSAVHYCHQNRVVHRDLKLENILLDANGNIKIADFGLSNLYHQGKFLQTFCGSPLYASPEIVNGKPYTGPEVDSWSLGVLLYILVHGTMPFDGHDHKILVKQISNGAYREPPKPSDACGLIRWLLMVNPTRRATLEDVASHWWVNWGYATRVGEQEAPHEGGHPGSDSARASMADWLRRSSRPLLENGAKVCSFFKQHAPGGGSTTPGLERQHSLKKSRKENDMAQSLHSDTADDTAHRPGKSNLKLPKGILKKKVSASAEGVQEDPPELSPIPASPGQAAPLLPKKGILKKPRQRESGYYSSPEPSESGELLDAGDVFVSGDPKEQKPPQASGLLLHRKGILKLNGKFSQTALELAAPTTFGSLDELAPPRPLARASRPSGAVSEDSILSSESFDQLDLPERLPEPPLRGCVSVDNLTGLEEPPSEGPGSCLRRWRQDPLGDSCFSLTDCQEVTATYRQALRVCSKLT

[6] = target: Maternal embryonic leucine zipper kinase (Homo sapiens) (UniProt Q14680); test: Inhibition of human MELK at 1.82 nM by HotSpot assay relative to control
Sequence of Maternal embryonic leucine zipper kinase (Homo sapiens) (Q14680 whole entry, looked up): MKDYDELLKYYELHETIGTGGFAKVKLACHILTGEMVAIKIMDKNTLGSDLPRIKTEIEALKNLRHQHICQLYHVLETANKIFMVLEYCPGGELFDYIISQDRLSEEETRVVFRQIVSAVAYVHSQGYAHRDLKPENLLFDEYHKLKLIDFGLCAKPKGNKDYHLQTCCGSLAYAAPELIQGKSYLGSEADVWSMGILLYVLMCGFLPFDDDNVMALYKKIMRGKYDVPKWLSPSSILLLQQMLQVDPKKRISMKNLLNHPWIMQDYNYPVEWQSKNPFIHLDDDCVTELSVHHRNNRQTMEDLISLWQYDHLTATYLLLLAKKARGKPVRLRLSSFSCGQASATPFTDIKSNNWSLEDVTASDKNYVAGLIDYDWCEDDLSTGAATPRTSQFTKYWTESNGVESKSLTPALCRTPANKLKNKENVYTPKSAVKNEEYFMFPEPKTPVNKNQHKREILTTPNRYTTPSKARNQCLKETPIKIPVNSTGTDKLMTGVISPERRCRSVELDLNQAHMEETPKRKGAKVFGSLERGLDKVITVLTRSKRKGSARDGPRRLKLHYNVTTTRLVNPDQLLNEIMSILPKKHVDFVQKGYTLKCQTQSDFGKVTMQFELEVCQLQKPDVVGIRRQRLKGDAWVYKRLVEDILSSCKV

[7] = target: Protein kinase C beta type (Homo sapiens) (UniProt P05771); test: Inhibition of human PKCb1 at 1.82 nM by HotSpot assay relative to control
Sequence of Protein kinase C beta type (Homo sapiens) (P05771 2-671 limits assumed): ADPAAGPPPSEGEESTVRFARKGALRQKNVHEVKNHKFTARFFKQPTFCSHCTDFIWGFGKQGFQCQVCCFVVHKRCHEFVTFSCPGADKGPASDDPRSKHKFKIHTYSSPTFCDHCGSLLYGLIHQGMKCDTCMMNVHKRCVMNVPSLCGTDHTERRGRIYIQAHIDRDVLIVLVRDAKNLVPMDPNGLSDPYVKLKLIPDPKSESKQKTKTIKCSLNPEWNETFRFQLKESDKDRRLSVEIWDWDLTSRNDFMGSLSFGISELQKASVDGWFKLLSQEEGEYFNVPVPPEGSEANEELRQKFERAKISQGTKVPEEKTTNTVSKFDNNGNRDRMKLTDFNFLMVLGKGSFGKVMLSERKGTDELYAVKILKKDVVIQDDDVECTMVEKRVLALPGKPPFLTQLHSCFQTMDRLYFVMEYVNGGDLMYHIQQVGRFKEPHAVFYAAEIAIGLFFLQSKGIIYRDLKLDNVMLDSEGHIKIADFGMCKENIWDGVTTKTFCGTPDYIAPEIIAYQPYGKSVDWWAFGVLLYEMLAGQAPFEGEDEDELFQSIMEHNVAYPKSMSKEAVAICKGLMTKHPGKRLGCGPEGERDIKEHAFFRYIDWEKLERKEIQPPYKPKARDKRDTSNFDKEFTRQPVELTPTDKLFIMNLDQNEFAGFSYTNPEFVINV

Row | inhibition [1] | inhibition [2] | inhibition [3] | inhibition [4] | inhibition [5] | inhibition [6] | inhibition [7] | SMILES
1 | -1.57% | 2.65% | 1.39% | -2.9% | 11% | – | – | C[C@]1(O)C[C@@H](c2nc(-c3ccc4ccc(-c5ccccc5)nc4c3)c3c(N)nccn32)C1
2 | – | – | – | – | – | 1.63% | -8.94% | C[C@@]1(C(=O)Nc2ccc(F)nc2)CCCN1c1nc(Nc2cc(C3CC3)n[nH]2)c2cccn2n1
